Experimental findings from ChEMBL document CHEMBL3244371, “An approach to peripheral vasodilator-beta-adrenergic blocking agents” (J Med Chem, 1977) are described below.

The term ED50 denotes the dose that gives a 50% effect, or the effect in half of the subjects.

The test system of data set [1] is Rattus norvegicus. Kind of data set: Antihypertensive activity in spontaneously hypertensive rat assessed as duration of effect at 1 mg/kg, po. In kind it is functional.
Data set [2] has as its system Rattus norvegicus. Put plainly: Antihypertensive activity in spontaneously hypertensive rat assessed as maximum fall in mean arterial pressure at 2 mg/kg, po. Type of data set: functional, Artery.
The subject of data set [3] is Rattus norvegicus. Kind of data set: Antihypertensive activity in spontaneously hypertensive rat assessed as maximum fall in mean arterial pressure at 1 mg/kg, po. In kind it is functional, Artery.
For data set [4], the system named is Rattus norvegicus. Kind of data set: Antihypertensive activity in spontaneously hypertensive rat assessed as duration of effect at 2 mg/kg, po. Type of data set: functional.
For data set [5], the system named is Canis familiaris. Kind of data set: Peripheral vasodilating activity in anesthetized trachea-cannulated mongrel dog assessed as increase in iliac blood flow at 1600 ug administered intraarterially in presence of isoproterenol. In kind it is functional, Canis lupus familiaris, Artery.
Data set [6] relates to Rattus norvegicus. Put plainly: Antihypertensive activity in spontaneously hypertensive rat assessed as duration of effect at 20 mg/kg, ip. In kind it is functional. The note with it: route intraperitoneal.
In data set [7] the test system is Canis familiaris. Put plainly: Blockade of isoprolerenol-induced hypotension in iv dosed anesthetized trachea-cannulated mongrel dog assessed as mean arterial pressure. In kind it is functional. Particulars: Canis lupus familiaris, Artery.
Data set [8] has as its system Canis familiaris. Put plainly: Blockade of isoprolerenol-induced tachycardia in iv dosed anesthetized trachea-cannulated mongrel dog assessed as heart rate. In kind it is functional. The note with it: Canis lupus familiaris.
The test system of data set [9] is Rattus norvegicus. Kind of data set: Antihypertensive activity in spontaneously hypertensive rat assessed as maximum fall in mean arterial pressure at 20 mg/kg, ip. The note with it: route intraperitoneal. In kind it is functional, Artery.
In data set [10] the test system is Rattus norvegicus. Kind of data set: Antihypertensive activity in spontaneously hypertensive rat assessed as maximum fall in mean arterial pressure at 20 mg/kg, po. Type of data set: functional, Artery.
The subject of data set [11] is Canis familiaris. Put plainly: Peripheral vasodilating activity in anesthetized trachea-cannulated mongrel dog assessed as increase in iliac blood flow at 1600 ug administered intraarterially co-treated with 800 ug/kg timolol in presence of isoproterenol. In kind it is functional, Canis lupus familiaris, Artery.
Data set [12] has as its system Canis familiaris. Kind of data set: Peripheral vasodilating activity in anesthetized trachea-cannulated mongrel dog assessed as increase in iliac blood flow at 1600 ug administered intraarterially co-treated with 2000 ug/kg timolol in presence of isoproterenol. Type of data set: functional, Canis lupus familiaris, Artery.
In data set [13] the test system is Rattus norvegicus. Put plainly: Antihypertensive activity in spontaneously hypertensive rat assessed as duration of effect at 1.25 mg/kg, po. Type of data set: functional.
The test system of data set [14] is Rattus norvegicus. Kind of data set: Antihypertensive activity in spontaneously hypertensive rat assessed as duration of effect at 20 mg/kg, po. In kind it is functional.
Data set [15] concerns Rattus norvegicus. Kind of data set: Antihypertensive activity in spontaneously hypertensive rat assessed as maximum fall in mean arterial pressure at 5 mg/kg, po. Type of data set: functional, Artery.
Data set [16] relates to Rattus norvegicus. Put plainly: Antihypertensive activity in spontaneously hypertensive rat assessed as duration of effect at 5 mg/kg, po. In kind it is functional.
The test system of data set [17] is Rattus norvegicus. Kind of data set: Antihypertensive activity in spontaneously hypertensive rat assessed as maximum fall in mean arterial pressure at 1.25 mg/kg, po. Type of data set: functional, Artery.
Data set [18] relates to Rattus norvegicus. Kind of data set: Antihypertensive activity in spontaneously hypertensive rat assessed as duration of effect at 0.312 mg/kg, po. In kind it is functional.
The test system of data set [19] is Rattus norvegicus. Put plainly: Antihypertensive activity in spontaneously hypertensive rat assessed as maximum fall in mean arterial pressure at 0.312 mg/kg, po. In kind it is functional, Artery.
Data set [20] concerns Canis familiaris. Put plainly: Peripheral vasodilating activity in anesthetized trachea-cannulated mongrel dog assessed as increase in iliac blood flow at 60 ug administered intraarterially in presence of isoproterenol. In kind it is functional, Canis lupus familiaris, Artery.
The subject of data set [21] is Canis familiaris. Put plainly: Peripheral vasodilating activity in anesthetized trachea-cannulated mongrel dog assessed as increase in iliac blood flow at 800 ug administered intraarterially in presence of isoproterenol. Type of data set: functional, Canis lupus familiaris, Artery.
Data set [22] relates to Rattus norvegicus. Kind of data set: Antihypertensive activity in spontaneously hypertensive rat assessed as duration of effect at 8 mg/kg, po. In kind it is functional.
Data set [23] relates to Canis familiaris. Kind of data set: Peripheral vasodilating activity in anesthetized trachea-cannulated mongrel dog assessed as increase in iliac blood flow at 800 ug administered intraarterially co-treated with 320 ug/kg timolol in presence of isoproterenol. In kind it is functional, Canis lupus familiaris, Artery.
Data set [24] has as its system Rattus norvegicus. Put plainly: Antihypertensive activity in spontaneously hypertensive rat assessed as maximum fall in mean arterial pressure at 8 mg/kg, po. In kind it is functional, Artery.
For data set [25], the system named is Canis familiaris. Put plainly: Toxicity in renal hypertensive dog assessed as elevation in heart rate at 4 to 16 mg/kg. In kind it is organism-based, Canis lupus familiaris. More on the design: dose 4-16 mg/kg. Particulars: in vivo.
Data set [26] deals with Canis familiaris. Put plainly: Peripheral vasodilating activity in anesthetized trachea-cannulated mongrel dog assessed as increase in iliac blood flow at 800 ug administered intraarterially co-treated with 800 ug/kg timolol in presence of isoproterenol. Type of data set: functional, Canis lupus familiaris, Artery.
The subject of data set [27] is Canis familiaris. Put plainly: Peripheral vasodilating activity in anesthetized trachea-cannulated mongrel dog assessed as increase in iliac blood flow at 8 ug administered intraarterially co-treated with 2000 ug/kg timolol in presence of isoproterenol. In kind it is functional, Canis lupus familiaris, Artery.
The test system of data set [28] is Canis familiaris. Put plainly: Peripheral vasodilating activity in anesthetized trachea-cannulated mongrel dog assessed as increase in iliac blood flow at 8 ug administered intraarterially in presence of isoproterenol. Type of data set: functional, Canis lupus familiaris, Artery.
For data set [29], the system named is Canis familiaris. Put plainly: Peripheral vasodilating activity in anesthetized trachea-cannulated mongrel dog assessed as increase in iliac blood flow at 32 ug administered intraarterially in presence of isoproterenol. Type of data set: functional, Canis lupus familiaris, Artery.
The test system of data set [30] is Canis familiaris. Kind of data set: Peripheral vasodilating activity in anesthetized trachea-cannulated mongrel dog assessed as increase in iliac blood flow at 16 ug administered intraarterially in presence of isoproterenol. Type of data set: functional, Canis lupus familiaris, Artery.
Data set [31] concerns Canis familiaris. Put plainly: Peripheral vasodilating activity in anesthetized trachea-cannulated mongrel dog assessed as increase in iliac blood flow at 32 ug administered intraarterially co-treated with 2000 ug/kg timolol in presence of isoproterenol. Type of data set: functional, Canis lupus familiaris, Artery.
Data set [32] deals with Canis familiaris. Put plainly: Peripheral vasodilating activity in anesthetized trachea-cannulated mongrel dog assessed as increase in iliac blood flow at 16 ug administered intraarterially co-treated with 2000 ug/kg timolol in presence of isoproterenol. In kind it is functional, Canis lupus familiaris, Artery.

Each structure is given as a SMILES string.

Regarding `NNc1nncc2ccccc12` [HYDRALAZINE], the Time is 6 h in [1] and over 7 h in [4]. In addition, the results for the Activity in [2], in [3] and in data set [5] were 40 mmHg, 30 mmHg and 66 mL/min, respectively.
Turning to `CC(C)(C)NC[C@H](O)COc1ccc(-c2ncc(C(F)(F)F)[nH]2)cn1`, the Time in [6] is over 7 h. For the same molecule, the ED50 was 0.058 mg/kg in data set [7] and 0.0025 mg/kg in [8]. Further, the Activity was found to be 40 mmHg in [9], 0 mmHg in data set [10], 38 mL/min in data set [11] and 103 mL/min in [5].
As to `CC(C)(C)NC[C@H](O)COc1ncccc1-c1ncc(C(F)(F)F)[nH]1`, the 50% effective dose (ED50) stood at 0.125 mg/kg in data set [7] and 0.25 mg/kg in [8]. Also, the Activity in data set [9] worked out at 8 mmHg; in [12], 9 mL/min; in data set [10] it was 6 mmHg; in data set [5], 4 mL/min.
Turning to `CC(C)(C)NC[C@H](O)COc1cccc(-c2ncc(C(F)(F)F)[nH]2)c1`, the Time in data set [6] was over 7 h. Besides, the ED50 in [7] was 0.086 mg/kg; in data set [8], over 1 mg/kg. Moreover, the Activity amounted to 40 mmHg in data set [9] and 5 mmHg in [10].
As for `CC(C)(C)NC[C@@H](O)COc1ccc(-c2ncc(C(F)(F)F)[nH]2)cc1`, the Time was 2 h in data set [13], 8 h in data set [14] and 6 h in [16]. Besides, the results for the 50% effective dose (ED50) in data set [7] and in data set [8] were over 1 mg/kg and 0.102 mg/kg, respectively. The Activity came to 22 mmHg in data set [15], 49 mmHg in data set [10] and 16 mmHg in [17].
Regarding `CC(C)(C)NC[C@H](O)COc1ccccc1-c1ncc(C(F)(F)F)[nH]1`, the Time in data set [6] was under 7 h. In addition, the ED50 in data set [7] was determined as 0.1 mg/kg; in data set [8], 0.3 mg/kg. For the same molecule, the Activity in data set [9] was 32 mmHg; in data set [12], 33 mL/min; in data set [10], 0 mmHg; in data set [5], 35 mL/min.
Consider `CC(C)(C)NC[C@H](O)COc1ccc(-c2nc(C(F)(F)F)c[nH]2)cc1`, for which the Time in data set [13] is 18 h; in data set [18], 12 h; in data set [16], over 24 h. Also, the 50% effective dose (ED50) in data set [7] was determined as 0.038 mg/kg; in [8], 0.0076 mg/kg. The Activity in data set [19] came to 24 mmHg; in data set [20], 5 mL/min; in data set [15], 56 mmHg; in [17], 40 mmHg.
In the case of `FC(F)(F)c1cnc(-c2cccnc2)[nH]1`, the Activity was 93 mL/min in data set [21]; 99 mL/min in data set [23]; 48 mmHg in [24]; 39 mmHg in [2]; 21 mmHg in [3]; 82 bpm in data set [25]. Moreover, in data set [26], the Activity came out at 76 mL/min. Besides, the Time was over 6 h in data set [22], 2 h in data set [1] and 6 h in [4].
As to `CC(C)(C)NCC(O)COc1ccc(-c2nc(C(F)(F)F)c[nH]2)cc1` (racemic), the Time was found to be 18 h in [13], 7 h in data set [18] and 18 h in data set [16]. The ED50 in [7] was determined as 0.036 mg/kg; in [8], 0.009 mg/kg. The Activity in [27] was 10 mL/min; in data set [28], 52 mL/min; in data set [19], 21 mmHg; in [29] it was 63 mL/min; in [30] it was 58 mL/min; in data set [12], 15 mL/min. In addition, the Activity was determined as 49 mmHg in [15]; 36 mmHg in [17]; 17 mL/min in data set [31]; 17 mL/min in data set [32]; 9 mL/min in data set [5].
